The text below walks through data of US20180344798A1, “TOPICALLY ACTIVE PEPTIDES FOR TREATING COSMETIC AND DERMATOLOGICAL CONDITIONS” (priority 2017, published 2018).

One data set has as its system response to bradykinin. Conditions: amounts up to 50,000 times the standard challenge of bradykinin; cited from earlier work.
For data set [1], the system named is TLR4-mediated maturation of dendritic cells. Here is the method: To determine whether all-D-TTNYT (SEQ ID NO: 1) blocks maturation of dendritic cells human PBMC's were isolated from peripheral blood by Ficoll-Paque centrifugation and then monocytes were isolated by negative selection using immunobeads (Miltenyi). Human monocyte derived immature dendritic cells (iDCs) were then generated by treating monocytes with GM-CSF/IL4 for 5 days.
The iDCs were treated with all-D-TTNYT (SEQ ID NO: 1) at 10^−12 M for 30 min. After 30 min LPS (100 ng/ml) was added to the cells and cells were analyzed after 48 hrs for surface maturation markers using fluorescent labeled antibodies by flow cytometry. […] The surface markers control T cell activation and localization in tissues. DCs, like microglia, are derived from differentiated monocytes and serve as the innate and adaptive sentinel cells of the skin and brain, respectively. Blockade of DC or microglial activation would suppress inflammation.

Data set [2] concerns rodent spinal cord tissue. Conditions: Rat, Padi, 2012; cited from earlier work.
Data set [3] deals with DC maturation caused by LL37 (IGF-1R).
The conditions of data set [4]: topical oil/water lotion 50 μg/ml, 2× per day, 28 days. Here is the method: Self-reported “Severity Scores” on a scale of 1-10 (with 10 being most severe) were recorded in a daily symptom report form to record the symptom score and compliance. The change from baseline is plotted for the day 0, 7, 14, 21, 28 and 35 (one week “off” treatment) symptom scores.
Topical administration of all-D-TTNYT (SEQ ID NO: 1) was formulated in an oil/water lotion consisting of deionized water, caprylic/capric triglyceride, polyglyceryl-6-stearate, polyglyceryl-6-behenate, cetearyl alcohol, and glyceryl stearate.

For data set [5] the following is noted: route of dosing not described; U.S. Pat. No. 5,798,335; cited from earlier work.
For data set [6], the system named is plasma inflammatory cytokines. Conditions: Ruff, cited from earlier work.
The conditions of data set [7]: aqueous solutions; U.S. Pat. No. 7,390,788; cited from earlier work.
Data set [8] relates to normal human epidermal keratinocytes. Conditions: Hu, Paoletti, 2013; cited from earlier work.
[9] abbreviates: Hu dendritic cells, peptide 10^-12 M 30 min, then LPS 100 ng/ml, 48 hrs, unpublished.
The mark [10] stands for this setting: Hu, DAPTA administered for 7 weeks.

Where “and” joins values, the source holds several entries; their conditions need not be identical. Equal values may be shown once.

With all-D-bradykinin, the “inhibition of the response to bradykinin or bradykinin-like effect” value in the data set with response to bradykinin is “neither any inhibition of the response to bradykinin, or any bradykinin-like effect”.

Consider all-D-TTNYT-NH2, for which the “Timed Walk, Post” value (after topical lotion 50 μg/ml, 2× per day to feet, 28 days, measured fixed distance) turned out to be 24 s. Moreover, the “Pain Score, Post” value (after topical lotion 50 μg/ml, 2× per day to feet, 28 days, scale 1-10, per subject) amounted to 3. Also, the “Timed Walk, Pre” value (before treatment (baseline), measured fixed distance) was determined as 48 s. Besides, the “Pain Score, Pre” value (before treatment (baseline), self-reported scale 1-10, per subject) is 7 and 6. Besides, under “two subjects with diabetic neuropathy symptoms, topical lotion 50 μg/ml, 2× per day”, the “pain sensitivity on self-reported Severity Scores” value was “Reduced pain sensitivity”.

As for all-D-TTNYT, in data set [1] (setting [9]), the CD58 change entry is reported as “decrease”, the CD86 change entry is given as “decrease”, the DR change result was “decrease” and the ICAM1 change entry is “decrease”. Besides, in data set [1] (iDCs pre-treated with peptide, then LPS, flow cytometry), the “expression of maturation markers CD86, HLA-DR, CD58 and ICAM1” value is listed as “reduces expression of all the maturation markers”. Also, in data set [2], the IL-1β change entry is given as “decrease” and the IL-6 change result is “decrease”. Also, the “effect on DC maturation of the four markers caused by LL37” value in data set [3] is listed as “no effect”. In addition, in [4] (five subjects, scale 1-10), the “self-reported Severity Scores in dermatocosmetic conditions” value is listed as “improved”. Also, the “appearance of rosacea, atopic dermatitis, and psoriasis” value in [4] (subject reports) was “improvements in the appearance of rosacea, atopic dermatitis, and psoriasis”.

Consider Dalal-peptide T-amide [DAPTA], for which the “improvement of eczema/dermatitis in dogs” value in data set [5] is “Improvement in two dogs with dermatitis, mild improvement in five cases of erythema, and no improvement in ten cases”. In data set [6] (setting [10]), the IL-1 change result is reported as “decrease”, the IL-6 change entry is recorded as “decrease”, the IL-8 change entry was “decrease” and the TNFα change entry is reported as “decrease”. In addition, in [6] (human subjects, DAPTA for 7 weeks), the “anti-inflammatory cytokine IL-10 (M2-type) change” value is given as “increased”. Further, the “aggregation and loss of potency upon storage” value in data set [7] was “high propensity for DAPTA to aggregate and lose potency”. Further, in data set [8], the ICAM1 change entry is reported as “decrease”, the IL-6 change entry is reported as “decrease”, the IL-8 change result is listed as “decrease” and the IL-23 change entry is listed as “decrease”. Besides, the pSTAT3 change result in [8] is listed as “decrease”.
